Measured values from publication PMC8920379, “The discovery of berberine erythrocyte-hemoglobin self-assembly delivery system: a neglected carrier underlying its pharmacokinetics” (Drug Delivery, 2022).

Key:
bovine hemoglobin (BHB) = molecular target: T1, bovine hemoglobin (BHB) (Bos taurus, UniProt P01966+P02070); experiment: Fluorescence quenching of BHB by BBR (Stern-Volmer) and thermodynamic parameters; type: binding; details: for Ksv (Stern-Volmer quenching constant) / kq (quenching rate constant): BHB 2 × 10^−6 mol/L, pH 7.4; for ΔG° / ΔH° / ΔS°: BBR–BHB system
T1 construct: purchased Sigma Aldrich
T1 sequence (P01966 2-142 limits assumed): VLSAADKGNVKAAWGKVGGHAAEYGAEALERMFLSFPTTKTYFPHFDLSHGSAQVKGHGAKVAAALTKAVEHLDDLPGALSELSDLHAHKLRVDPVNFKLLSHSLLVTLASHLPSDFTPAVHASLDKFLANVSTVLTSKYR
T1 sequence (P02070 whole entry): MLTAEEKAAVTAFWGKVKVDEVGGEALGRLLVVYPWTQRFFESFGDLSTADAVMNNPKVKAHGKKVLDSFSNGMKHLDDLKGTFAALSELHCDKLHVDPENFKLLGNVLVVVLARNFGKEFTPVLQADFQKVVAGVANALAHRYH
Description: Firstly, 1.0 mL of BHB (2.0 × 10^−6 mol/L) was mixed with 1.0 mL of 0.05 mol/L Tris-HCl buffer (pH = 7.4). And then BHB was added with different amounts of 0.25 × 10^−3 mol/L stock solution of BBR with an increment of 0.25 × 10^−5 mol/L until 1.75 × 10^−5 mol/L. […] (excitation at 280 nm and emission wavelengths ranging from 295 to 400 nm). The synchronous fluorescence spectra were measured through simultaneous scanning of the excitation (λex = 240 nm) and emission monochromators while maintaining a constant wavelength interval between them (Δλ, 15 nm and 60 nm).
In addition, CD spectra were collected from 200 to 260 nm with three scans averaged for each CD spectrum. The molar ratio (1:1) of BHB: BBR was used for the measurement. Briefly, BHB and BBR were dissolved in Tris-HCl (pH 7.4), and the solutions were freeze-dried into powder. Raman spectra were measured from 2600 to 400 cm^−1 using the Nd-YAG laser (1064 nm). Due to the existence of inner filter effects, the fluorescence parameter was corrected using the equation: F=F0×10^(AEX+AEM/2) where F and F0 are the fluorescence intensity corrected and observed, respectively; AEX and AEM are the sums of the absorbance of samples at excitation and emission wavelengths (Chen et al., [2021]).
Fluorescence quenching could be used to explore the interaction between drugs and proteins, and further elucidate the interaction between small drug molecules and biological macromolecules at the molecular level. Due to the quenching mechanisms were usually classified as static and dynamic quenching, the Stern-Volmer equation was utilized to calculate the fluorescence quenching data (Wang et al., [2007]): F0/F=1+Ksv[Q]=1+kqτ0[Q] where F0 and F are the fluorescence intensities at the absence or presence of BBR after correction by Equation, respectively. Ksv is the Stern-Volmer quenching constant, while [Q] is the concentration of the quencher. In addition, kq is the quenching rate constant of the binding system, and τ0 is the lifetime of fluorescence at the absence of quencher ([…]) (Sousa et al., [2008]).
In our earlier research, we have explored the association constants and the number of binding sites, and we have learned that in a static quenching system when a small molecule combines with a set of sites on a macromolecule, some constant can be calculated from the following equation: lg(F0−F/F)=lgKa+nlg[Q] where F0 and F are the fluorescence intensities in the absence and presence of BBR after correction by Equation in Spectrum procedure, Ka and n mean the association constants and the number of the sites per BHB molecule. The interrelated results were shown in our previous work (Chen et al., [2021]).
The thermodynamic parameters were analyzed using the following equations: ln((Ka)2/(Ka)1)=(1/T1−1/T2)(ΔH°/R) ΔG°=ΔH°−TΔS°=−RTlnKa where (Ka)1, and (Ka)2 are the binding constants at T1 and T2 and, R is the universal gas constant. If ΔH° < 0 and ΔS° < 0, van der Waals’ interactions and hydrogen bonds are dominant the binding reaction. If ΔH° > 0 and ΔS° > 0, hydrophobic interactions play a major role in the binding reaction. When ΔH° < 0 and ΔS° > 0, the electrostatic forces are more important than other forces (Ross and Subramanian, [1981]). […] The large positive entropy is the marker of the disruption and release of protein-bound condensed ions and water molecules (Basu & Suresh Kumar, [2015]).

Hemolysis rate = type: cell-based, rats; details: rat, washed rat erythrocytes, 2% hematocrit suspension, 2% erythrocytes, 37 °C
Description: (§1) The whole blood was collected from rats by orbital plexus vein and transferred into a blood-collection tube containing ethylene diamine tetraacetic acid (EDTA) as an anticoagulant. The whole blood was centrifuged at 3000 rpm for 10 min. The plasma and the buffy coat in the supernatant were removed by aspiration, and erythrocytes were washed three times in cold phosphate buffer saline (PBS) and centrifuged for 10 min at 3000 rpm, and then resuspended in an appropriate volume of PBS.
(§2) The hematocrite of washed erythrocytes was adjusted by PBS to 2%. In 5-mL Eppendorf tubes, 1 mL of 2% erythrocytes was incubated with 1 mL of different concentrations of BBR hydrochloride at 37 °C for 2 h. The final concentrations of BBR hydrochloride in reaction system were 0.125, 0.250, 0.500, 1.000, 1.333, 1.500, 1.600 mg/mL, respectively. One mL of 2% erythrocytes incubated with 1 mL saline solution served as the […] group while 1 mL 2% erythrocytes incubated with 1 mL distilled water served as the […] one. After incubation, the erythrocytes suspension was centrifuged at 3000 rpm for 10 min. Then 150 μL supernatant was added to the 96-well plate. Three parallel wells were set for each group, and the absorbance at 545 nm of each sample well was measured by a microplate reader. The imaging system was employed to observe whether BBR induced hemolysis. The hemolysis rate was calculated according to the following formula: Hemolysis rate (%) = [(ODsample−ODnegative)/(ODpositive −ODnegative)] ×100%

2% erythrocytes = experiment: Hemolysis rate; type: cell-based, rats; details: 37 °C, 2 h
Description: as §1, §2

[1] = cited from earlier work

Question: With COc1ccc2cc3[n+](cc2c1OC)CCc1cc2c(cc1-3)OCO2 [BBR, Berberine] as the molecule, how does the “Ksv (Stern-Volmer quenching constant)” value (bovine hemoglobin (BHB); 293 K) read?
Answer: 41272 L/mol

Question: And the “kq (quenching rate constant)” value (bovine hemoglobin (BHB); 293 K)?
Answer: 4.1272e+12 M⁻¹ s⁻¹

Question: What about the “Ksv (Stern-Volmer quenching constant)” value (bovine hemoglobin (BHB); 298 K) of the same molecule?
Answer: 38445 L/mol

Question: What about the “kq (quenching rate constant)” value (bovine hemoglobin (BHB); 298 K) of the same molecule?
Answer: 3.8445e+12 M⁻¹ s⁻¹

Question: What about the “Ksv (Stern-Volmer quenching constant)” value (bovine hemoglobin (BHB); 310 K) of the same molecule?
Answer: 30957 L/mol

Question: And the “kq (quenching rate constant)” value (bovine hemoglobin (BHB); 310 K)?
Answer: 3.0957e+12 M⁻¹ s⁻¹

Question: What about the “ΔG°” value (bovine hemoglobin (BHB); 293 K) of the same molecule?
Answer: -25.900 kJ/mol

Question: What about the “ΔH°” value (bovine hemoglobin (BHB); 293 K) of the same molecule?
Answer: -4.7495 kJ/mol

Question: What about the “ΔS°” value (bovine hemoglobin (BHB); 293 K) of the same molecule?
Answer: 72.113 J mol^−1K^−1

Question: And the “ΔG°” value (bovine hemoglobin (BHB); 298 K)?
Answer: -26.261 kJ/mol

Question: What about the “ΔH°” value (bovine hemoglobin (BHB); 298 K) of the same molecule?
Answer: -4.7495 kJ/mol

Question: What about the “ΔS°” value (bovine hemoglobin (BHB); 298 K) of the same molecule?
Answer: 72.114 J mol^−1K^−1

Question: What about the “ΔG°” value (bovine hemoglobin (BHB); 310 K) of the same molecule?
Answer: -26.984 kJ/mol

Question: And the “ΔH°” value (bovine hemoglobin (BHB); 310 K)?
Answer: -4.7495 kJ/mol

Question: What about the “ΔS°” value (bovine hemoglobin (BHB); 310 K) of the same molecule?
Answer: 71.724 J mol^−1K^−1

Question: And the “quenching mechanism of BBR-BHB complex formation” value (bovine hemoglobin (BHB); Ksv and Kq decreased with increasing temperature)?
Answer: static quenching process

Question: What about the “major force in the binding reaction” value (bovine hemoglobin (BHB); from negative ΔH° and positive ΔS°) of the same molecule?
Answer: electrostatic interaction

Question: And the hemolysis at 2 h, 1.5 mg/mL (Hemolysis rate; BBR 1.50 mg/mL)?
Answer: 58.2%

Question: What about the hemolysis at 2 h, 1.6 mg/mL (Hemolysis rate; BBR 1.60 mg/mL) of the same molecule?
Answer: 89.7%

Question: And the “hemolysis of the BBR-erythrocyte system” value (2% erythrocytes; BBR 1.00 mg/mL)?
Answer: relatively stable without hemolysis

Question: And the “hemolysis of the erythrocyte” value (2% erythrocytes; BBR concentration below 1.00 mg/mL)?
Answer: no hemolysis

Question: And the “concentration of BBR in the liver relative to plasma” value ([1]; background statement of the introduction, no reference given)?
Answer: about 10 fold

Question: And the “average concentration of BBR in liver relative to plasma” value ([1]; ref Yan et al., 2009, Tan et al., 2013, Yu et al., 2017)?
Answer: 10–30 times
